Test results published in patent US4895835A, “Muramyl peptide derivatives and use thereof” (priority 1987, dated 1990).

Experiments:
[1] = tested on: Psud. aeruginosa (NCTC 10490); experiment: Phylactic effect, Psud. aeruginosa infection; format: in vivo; details: ICR mouse; compound 500 μg/ml, 0.2 ml i.p. one day before infection i.p. 1×10^7 /mouse; after 7 days of infection
Protocol: (§1) A solution of a compound of the invention in physiological saline (500 μg/ml), 0.2 ml was intraperitoneally injected into ICR mouse (20 mice per group). After a day, E. coli (JC-2) and Psud. aeruginosa (NCTC 10490) were incubated through intraperitoneal route so as to be at concentration of 1×10^7 /mouse. Survival rate after 7 days of infection was measured.

[2] = tested on: Meth A fibrosarcomas; experiment: Antitumour effect, Meth A fibrosarcoma; format: in vivo; details: BALB/C mouse; s.c. 0.2 ml mixture of Meth A cells (1×10^6 cells/ml) and compound (1,000 μg/ml); after 35 days
Protocol: Meth A fibrosarcomas were suspended in phosphate buffered physiological saline (1×10^6 cells/ml). Separately, a solution of a compound of the invention in physiological saline was prepared (1,000 μg/ml). An equivalent weight mixture of these two solution (0.2 ml) was subcutaneously injected into BALB/C mouse (20 mice per group). Survival rate after 35 days was measured.

[3] = tested on: BCG killed vaccine; experiment: Enhancing action on BCG vaccine (adjuvant activity), 24 hours foot-pad test; format: in vivo; details: ICR mouse; s.c. 0.2 ml mixture of BCG killed vaccine (100 μg/ml) and compound in Freund's incomplete adjuvant (1000 μg/ml); tuberculin 10 μg after 14 days; measured after 24 hours
Protocol: (1) Enhancing action on BCG vaccine (adjuvant activity)
0.2 ml of an equivalent weight mixture of a solution of BCG killed vaccine in physiological saline (100 μg/ml) and a solution of a compound of the invention in Freund's incomplete adjuvant (1000 μg/ml) was subcutaneously injected to the back of ICR mouse (one group consisting of 7 mice). After 14 days, 10 μg of tuberculin was intradermally injected into the hind foot-pad. Swelling of the foot-pad was measured after 24 hours (24 hours foot-pad test).
The control is the above mentioned mixture excluded a compound of the invention.

[4] = tested on: leukemia cells of L-1210 mouse; experiment: Activation for macrophages: cytostatic rate of intraperitoneal macrophages on leukemia cells; format: in vivo; details: CDF1 mouse i.p. 500 μg/ml, 0.2 ml; macrophages collected after 4 days; macrophages:L-1210 cells 20:1; 72 hours
Protocol: (4) Activation for macrophages
A test solution of a compound of the invention in physicological saline (500 μg/ml, 0.2 ml) was intraperioneally injected into CDF1 mouse (one group consisting of mice). Intraperioneal macrophages which were collected after 4 days and leukemia cells of L-1210 mouse were mixed at the cell ratio of 20 and 1. Each 200 μl of the mixture was put on a microplate having 96 holes. After 72 hours, numbers of cells in each holes were counted, and cytostatic rate of the mixture was measured.

[5] = Stimulation effect on antibody producing cells (plaque numbers, Cunningham technique); format: in vivo, ICR mouse; details: for Plaque No.: ICR mouse, SRBC i.v. and compound 500 μg/ml, 0.2 ml i.v., splenic cells after 4 days; for Stimulation index: plaque number relative to control (saline) = 1
Protocol: (5) Stimulation effect on anti-body precluding cells
A solution of sheep […] (SRBC) in phosphate buffered physiological saline (5×10^7 cells/ml), 0.2 ml was injected into tail intravenous vein of ICR mouse (7 mice per group). At the same time, a solution of a compound of the invention in physiological saline (500 μg/ml), 0.2 ml was similarly injected. After 4 days, lien was picked up from the treated mouse to obtain splenic cells. Plaque numbers were measured by Cunningham technique.

[6] = tested on: influenza HA vaccine (A/Bangkok/10/83 strain, H1N1); experiment: Enhancing effect on influenza HA vaccine (adjuvant activity), ELISA; format: in vivo; details: CDF1 mouse, compound (100 μg/ml) mixed with influenza HA vaccine (100 CCA/ml)
Protocol: (3) Enhancing effect on influenza HA vaccine (adjuvant activity)
A compound of the invention was dissolved or suspended in physiological saline (100 μg/ml). Separately, influenza HA vaccine (A/Bangkok/10/83 strain, H1N1) was dissolved in physiological saline (100 CCA/ml). These two solutions were mixed in an equivalent weight to make the test solution. Control is a solution excluded the compound of the invention from the test solution.
The test solution was administered into CDF1 mouse in a similar way to that of the test of enhancing action for hepatitis vaccine as mentioned above, to obtain primary and secondary response sera.

[7] = tested on: B type hepatitis vaccine (HBs); experiment: Enhancing effect on hepatitis vaccine (adjuvant activity), IgG antibody by ELISA; format: in vivo; details: CDF1 mouse; for Anti HBs-ELISA unit, Primary response serum: i.p. 0.2 ml compound (100 μg/ml) mixed with HBs vaccine, serum at 3 weeks; for Anti HBs-ELISA unit, Secondary response serum: second i.p. injection of 0.2 ml test solution, serum at 2 weeks
Protocol: (2) Enhancing effect on hepatitis vaccine (adjuvant activity)
A compound of the invention was dissolved or suspended in physiological saline (100 μg/ml), and mixed with a solution of B type hepatitis vaccine (HBs) in physiological saline (100 μg/m) at an equivalent weight ratio to obtain the test solution. A solution excluded the compound of the invention from the test solution was used as control.
The test solution (0.2 ml) was intraperitoneally injected into CDF1 mouse (one group consisting of 10 mice). At 3 weeks after the administration, a blood was taken from the intravenous vein in eyeground of each the mice and centrifuged to obtain serum (primary response serum). Further, 0.2 ml of the test solution was again intraperitoneally injected into each mice, and at 2 weeks stage, serum was separated in the similar way (secondary response serum).
Value for IgG antibody against B type hepatitis virus of the resulting serum was measured by ELISA method.

[8] = tested on: E. coli (JC-2); experiment: Phylactic effect, E. coli infection; format: in vivo; details: ICR mouse; compound 500 μg/ml, 0.2 ml i.p. one day before infection i.p. 1×10^7 /mouse; after 7 days of infection
Protocol: as §1

SMILES | Survival rate, Psud. aeruginosa [1] [%] | Survival rate [2] [%] | Swelling of Foot-pad [3] [× 0.01 mm] | Cytostatic rate [4] [%] | Plaque No. [5] | Stimulation index [5] | Anti-influenza HA virus ELISA unit, Primary response serum [6] | Anti-influenza HA virus ELISA unit, Secondary response serum [6] | Anti HBs-ELISA unit, Primary response serum [7] | Anti HBs-ELISA unit, Secondary response serum [7] | Survival rate, E. coli [8] [%]
CCCCCCCCCCCC(=O)O[C@H](CCCCCCCCCCC)CC(=O)OC[C@H]1OC(O)[C@H](NC(C)=O)[C@@H](O[C@H](C)C(=O)N[C@@H](C)C(=O)N[C@H](CCC(=O)OC)C(N)=O)[C@@H]1O (stereo partly drawn) [Example 1, N-[[2-O-{2-Acetamido-2,3-dideoxy-6-O-[(3R)-3-dodecanoyloxytetradecanoyl]-D-glucopyranos-3-yl}-D-lactoyl]]-L-alanyl-D-isoglutamine methyl ester] | 45 | 30 | 59.2 ± 15.1 | 40.0 ± 1.2 | 10.56 ± 8.3 × 10^3 | 2.2 | 4,800 ELISA unit | 34,000 ELISA unit | 10,800 ELISA unit | 150,000 ELISA unit | 50
CCCCCCCCCCCCCC(=O)O[C@H](CCCCCCCCCCC)CC(=O)OC[C@H]1OC(O)[C@H](NC(C)=O)[C@@H](O[C@H](C)C(=O)N[C@@H](C)C(=O)N[C@H](CCC(=O)OC)C(N)=O)[C@@H]1O (stereo partly drawn) [Example 2, N-[[2-O-{2-Acetamido-2,3-dideoxy-6-O-[(3R)-3-tetradecanoyloxytetradecanoyl]-D-glucopyranos-3-yl}-D-lactoyl]]-L-alanyl-D-isoglutamine methyl ester] | 45 | 30 | 57.4 ± 16.3 | 45.2 ± 1.1 | 8.23 ± 7.2 × 10^3 | 1.7 | 3,100 ELISA unit | 33,000 ELISA unit | 6,000 ELISA unit | 195,000 ELISA unit | 55
CCCCCCCCCCCCCCCC(=O)O[C@H](CCCCCCCCCCC)CC(=O)OC[C@H]1OC(O)[C@H](NC(C)=O)[C@@H](O[C@H](C)C(=O)N[C@@H](C)C(=O)N[C@H](CCC(=O)OC)C(N)=O)[C@@H]1O (stereo partly drawn) [Example 3, N-[[2-O-{2-Acetamido-2,3-dideoxy-6-O-[(3R)-3-hexadecanoyloytetradecanoyl]-D-glucopyranos-3-yl}-D-lactoyl]]-L-alanyl-D-isoglutamine methyl ester] | 40 | 20 | 66.2 ± 12.3 | 22.3 ± 1.0 | 21.23 ± 9.9 × 10^3 | 4.4 | 5,200 ELISA unit | 57,000 ELISA unit | 24,000 ELISA unit | 575,000 ELISA unit | 45
CCCCCCCCCCCC(=O)O[C@H](CCCCCCCCCCC)CC(=O)OC[C@H]1OC[C@H](NC(C)=O)[C@@H](O[C@H](C)C(=O)N[C@@H](C)C(=O)N[C@H](CCC(=O)OC)C(N)=O)[C@@H]1O [Example 4] | 50 | 35 | 78.6 ± 19.1 | 55.2 ± 2.8 | 6.67 ± 3.6 × 10^3 | 1.4 | 2,300 ELISA unit | 32,000 ELISA unit | 5,200 ELISA unit | 175,000 ELISA unit | 65
CCCCCCCCCCCCCC(=O)O[C@H](CCCCCCCCCCC)CC(=O)OC[C@H]1OC[C@H](NC(C)=O)[C@@H](O[C@H](C)C(=O)N[C@@H](C)C(=O)N[C@H](CCC(=O)OC)C(N)=O)[C@@H]1O [Example 5, N-[[2-O-{2-Acetamido-1,5-anhydro-2,3-dideoxy-6-O-[(3R)-3-tetradodecanoyloxytetradecanoyl]-D-glucitol-3-yl}-D-lactoyl]]-L-alanyl-D-isoglutamine methyl ester] | 55 | 35 | 69.3 ± 18.8 | 58.6 ± 2.9 | 5.83 ± 3.2 × 10^3 | 1.2 | 1,800 ELISA unit | 28,000 ELISA unit | 3,600 ELISA unit | 120,000 ELISA unit | 70
CCCCCCCCCCCCCCCC(=O)O[C@H](CCCCCCCCCCC)CC(=O)OC[C@H]1OC[C@H](NC(C)=O)[C@@H](O[C@H](C)C(=O)N[C@@H](C)C(=O)N[C@H](CCC(=O)OC)C(N)=O)[C@@H]1O [Example 6] | 50 | 30 | 86.4 ± 22.1 | 42.6 ± 3.2 | 6.81 ± 4.8 × 10^3 | 1.4 | 2,500 ELISA unit | 30,000 ELISA unit | 6,200 ELISA unit | 220,000 ELISA unit | 60
